In PubChem BioAssay (NCI) one finds TGI data, which are given here for eleven molecules.

Assay in all cases: NCI-60 cell line screen, 48 h
In test [1] the test system is LOX IMVI melanoma.
The subject of test [2] is ACHN renal.
The subject of test [3] is MOLT-4 leukemia.
Test [4] concerns SNB-19 CNS.
Test [5] has as its system HS 578T breast.
The subject of test [6] is HOP-92 NSCLC.
Test [7] concerns NCI-H522 lung.
Test [8] concerns HT29 colon.
In test [9] the test system is K-562 leukemia.
Test [10] concerns NCI-H23 lung.
The subject of test [11] is OVCAR-4 ovarian.
In test [12] the test system is HCT-15 colon.
Test [13] concerns EKVX NSCLC.
Test [14] concerns UACC-257 melanoma.
The subject of test [15] is SR leukemia.

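In this assay, cells in 96-well plates receive the compound at five concentrations for 48 hours. Endpoints are linearly interpolated between the surrounding concentrations. TGI: total growth inhibition.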

On to `CS(=O)(=O)N1CC(CCl)c2ccc(NCCN)cc21` (stereo not given), for which the TGI in test [1] was over 100 µM; in test [2], over 100 µM; in [3] it was over 100 µM; in [4] it was over 100 µM; in [5] it was over 100 µM; in [6], 74.6 µM. The TGI in [7], in [8], in test [9], in test [10], in test [11] and in test [12] was over 100 µM throughout. The TGI in [13] and in test [14] was over 100 µM throughout.

Turning to `CCCC(=O)OCC1(CO)C/C(=C/CC(C(C)C)C(C)C)C(=O)O1` (stereo not given), the TGI in test [1] was 35.8 µM; in [2], over 100 µM; in test [4], over 100 µM; in test [5] it was over 100 µM; in test [6], over 100 µM; in [7] it was over 100 µM. The TGI in test [8], in [10], in test [11], in test [12], in [13] and in test [14] was over 100 µM throughout.

Regarding `Nc1ccc2ncc(Nc3ccc(F)cc3)nc2c1`, the TGI in [1], in [2], in [3], in [4], in [7] and in [8] was over 100 µM throughout. Besides, the TGI in test [9], in [10], in [11], in [12], in test [13] and in [14] was over 100 µM each time. The molecule also came in with a TGI in test [15] of over 100 µM.

On to `COc1cc(C(C#N)NNC(=O)Cc2ccccc2)cc(OC)c1OC` (stereo not given), for which the TGI in [1], in [2], in test [3], in test [6], in [7] and in test [8] was over 100 µM each time. Besides, the TGI in [9], in test [10], in test [11], in [12], in [14] and in test [15] was over 100 µM in each case.

`COc1ccc(/C=N/NC(=O)c2ccccc2Nc2ccccc2C(=O)N/N=C/c2ccc(OC)cc2)cc1`: the TGI in test [1], in test [2], in test [3], in test [4], in test [6] and in [8] was over 100 µM in each case. In addition, the TGI in test [9], in test [10], in test [11], in [12], in [13] and in test [14] was over 100 µM in each case. This molecule came in with a TGI in test [15] of over 100 µM.

Consider `COc1ccc([C@@H]2CC(=O)NCCCNCCCCNCCCN2)cc1`, for which the TGI in test [2], in [3], in [4], in test [6], in test [7] and in test [8] was over 100 µM throughout. Also, the TGI in [9], in test [10], in test [11], in test [12], in test [13] and in test [14] was over 100 µM in each case. In test [15], this molecule gave a TGI of over 100 µM.

As to `Cc1ccc(/C=C/C(=O)C(C)C)cc1`, the TGI in [2] was over 100 µM; in [3] it was 76.9 µM; in [4] it was over 100 µM; in [6], over 100 µM; in test [7] it was over 100 µM; in [8] it was over 100 µM. Moreover, the TGI in test [9] is over 100 µM; in test [10] it was over 100 µM; in [11], over 100 µM; in test [13] it was over 100 µM; in test [14], over 100 µM; in [15], 98.4 µM.

On to `CCNc1nc(N)c(C(=O)c2cccs2)s1`, for which the TGI in test [1] is over 100 µM; in test [2] it was over 100 µM; in test [3] it was 60.7 µM; in [4], over 100 µM; in test [5], over 100 µM; in test [6], over 100 µM. In addition, the TGI in [7] was over 100 µM; in test [8], 72.4 µM; in test [9] it was over 100 µM; in test [10], 63.9 µM; in [11], 77.6 µM; in test [12] it was over 100 µM. Further, the results for the TGI in test [13] and in test [14] were 62.8 µM and over 100 µM, respectively.

With `CCN(CC)CCSc1n[nH]c(-c2c[nH]c3nc(C)ccc3c2=O)n1`, the TGI in test [1], in test [2], in test [3], in [4], in test [5] and in [7] was over 100 µM each time. The TGI in test [8], in [9], in [10], in [11], in [12] and in [13] was over 100 µM throughout. In test [14], this molecule registered a TGI of over 100 µM.

Take `Nc1nc(N)c2ncn(-c3ccc(Cl)c(Cl)c3)c2n1`: the TGI in test [2] was over 100 µM; in [3], 42.5 µM; in test [4], over 100 µM; in test [5], 42.4 µM; in test [6], over 100 µM; in test [7] it was over 100 µM. Moreover, the TGI in test [8] is 58.1 µM; in [10], 40.4 µM; in test [11], over 100 µM; in test [12] it was over 100 µM; in test [13] it was over 100 µM; in [14] it was 57.9 µM.

As for `O=[N+]([O-])c1cc2c(cc1O)[nH]c1cccc([N+](=O)[O-])c12`, the TGI in test [1], in test [2], in [3], in [4], in test [7] and in test [8] was over 100 µM in each case. Besides, the TGI in test [9], in test [10], in test [11], in test [12], in test [14] and in [15] was over 100 µM each time.
